Results as given in patent publication US12084422B2, “Phenyl-n-quinoline derivatives for treating a RNA virus infection” (ABIVAX, priority 2018, dated 2024).

What was measured:
[1] = system: DENV-2 strain 16681; experiment: Screening for DENV-2 inhibition using Viral ToxGlo assay in A549 cells; type: cell-based, Dengue 2 virus; details: Dengue virus, DENV2, A549, 120 h, read-out: % DENV-2 Inhibition Mean (n = 3)
Procedure: Protocol for Screening Antiviral Compounds for DENV-2 Inhibition and Cytotoxicity Using Viral ToxGlo Assay
A549 cells were maintained in Dulbecco's Modified Eagle Medium (DMEM) supplemented with 10% fetal bovine serum, 100 U/ml penicillin and 100 μg/ml streptomycin. For the purposes of the screening assay they were grown to 90% confluency, trypsinized and recovered. The trypsin was neutralised with cell culture media and cells were centrifuged at 150×g for 5 minutes before discarding the supernatant and resuspending cell pellet in assay media (DMEM supplemented with 2% fetal bovine serum and 100 U/ml penicillin and 100 μg/ml streptomycin). The cells were seeded into 96-well white clear-bottomed cell culture plates at a density of 1.0×10^4 cells/well in 50 μl. For the media/background control column assay media only was added. Cell plates were placed in a humid chamber and incubated overnight at 37° C./5% CO2. After overnight incubation cells were checked for confluency and healthy appearance.
Test compounds were prepared at a final concentration of 10 μM, in a maximum DMSO concentration of 1% (final assay concentration maximal 0.1% DMSO) and added to the cell plates in volumes of 10 μl. For cell control and virus control wells the test article solvent only was added. As a positive inhibition control, 7-Deaza-2′-C-methyladenosine was added at 100 μM in 3 wells. Virus (DENV-2 strain 16681) or assay media for cytotoxicity test wells and media/cell control wells was added immediately after test articles at an MOI of 0.5, 40 for 96 well plates respectively. Virus suspension was prepared by thawing DENV-2 frozen stocks and diluting to the required concentration of plaque forming units in assay media.
Cell plates were further incubated inside a humid chamber for 5 days p.i at 37° C./5% CO2. After the incubation period cells were observed under the microscope to check for characteristic cytopathic effect in virus control wells and healthy cells in the cell control wells. After plates were adjusted to room temperature 20 μl Viral ToxGlo (Promega) was added to each well of the 96-well cell plates. Plates were incubated at room temperature for 5 minutes before measuring the luminescence on a spectrophotometer (Envision, PerkinElmer).
DENV-2 inhibition was calculated as percentage of cytopathic effect inhibition relative to the virus control and cytotoxicity as percentage of cell survival relative to cell control wells.

[2] = system: RSV A2; experiment: Screening for RSV inhibition using Viral ToxGlo assay in HEp-2 cells; type: cell-based; details: human respiratory syncytial virus, HEp-2, 72 h
Procedure: Protocol for Screening Antiviral Compounds for RSV Inhibition and Cytotoxicity Using Viral ToxGlo Assay
HEp-2 cells were maintained in Eagle's minimum essential medium (EMEM) with Earle's BSS adjusted to contain 2 mM L-glutamine, 10% fetal bovine serum, 100 U/ml penicillin and 100 μg/ml streptomycin. For the purposes of the screening assay they were grown to 90% confluency, trypsinized and recovered. The trypsin was neutralised with cell culture media and cells were centrifuged at 150×g for 5 minutes before discarding the supernatant and resuspending cell pellet in assay media (EMEM with Earle's BSS adjusted to contain 2 mM L-glutamine, 2% fetal bovine serum and 100 U/ml penicillin and 100 μg/ml streptomycin). The cells were seeded into white clear-bottomed cell culture plates at a density of 1.5×10^4 cells/well in 50 μl and 4×10^3 cells/well in 25 μl for 96 well plates and 384 well plates respectively. For the media/background control column assay media only was added. Cell plates were placed in a humid chamber and incubated overnight at 37° C./5% CO2. After overnight incubation cells were checked for confluency and healthy appearance.
Test articles were made up at 10× test concentration in a maximum DMSO concentration of 10% (final assay concentration maximal 1% DMSO) and added to the cell plates in volumes of 10 μl for 96 well plates and 5 μl for 384 well plates. For cell control and virus control wells the test article solvent only was added. Virus or assay media for cytotoxicity test wells and media/cell control wells was added immediately after test articles at an MOI of 0.5, 40 or 20 μl for 96 and 384 well plates respectively. Virus suspension was prepared by thawing RSV A2 frozen stocks and diluting to the required concentration of plaque forming units in assay media on ice.
Cell plates were further incubated inside a humid chamber for 72 h p.i at 37° C./5% CO2. After the incubation period cells were observed under the microscope to check for characteristic cytopathic effect in virus control wells and healthy cells in the cell control wells. After plates were adjusted to room temperature 20/40 μl Viral ToxGlo (Promega) was added to each well of the 384/96 well cell plates. Plates were incubated at room temperature, protected from light on a plate rocker for 20 minutes before measuring the luminescence on a spectrophotometer (Biotek Synergy HTX).
RSV inhibition was calculated as percentage of cytopathic effect inhibition relative to the virus control and cytotoxicity as percentage of cell survival relative to cell control wells. This allowed EC50 values to be calculated for each test article where a virus inhibition or cytotoxic dose response was identified. EC50 values ranging between 0.001 µM and 5 μM could thus be determined for compounds 1, 6, 10, 13, 28, 38, 43, 47, 48, 49, 50, 51, 52, 53, 54, 55, 56 and 57.

Row | Structure (SMILES) | inhibition at 10 µM [1] [%] | EC50 [2] [nM]
1 | Cc1cc(OC(C)C)ccc1Nc1ccc2cccc(Cl)c2n1 [Compound 10, 8-chloro-N-(4-isopropoxy-2-methylphenyl)quinolin-2-amine] | 79 | 585
2 | CCc1cc(OC(C)C)ccc1Nc1ccc2cccc(Cl)c2n1 [Compound 13, 8-chloro-N-(2-ethyl-4-isopropoxyphenyl)quinolin-2-amine] | 117 | 1180
3 | Cc1cc(OC(C)C)c(C)cc1Nc1ccc2cccc(Cl)c2n1 [Compound 43, 8-chloro-N-(4-isopropoxy-2,5-dimethylphenyl)quinolin-2-amine] | 68 | 348
